From ChEMBL document CHEMBL4393689, “Discovery of fluorescent coumarin-benzo[b]thiophene 1, 1-dioxide conjugates as mitochondria-targeting antitumor STAT3 inhibitors” (Eur J Med Chem, 2019)
Calls of active or inactive are those of the source. No cut-off for these calls is given here.

Experiments:
HCT-116 = experiment: Potency index, ratio of IC50 of BTP to ratio of IC50 of compound for antiproliferative activity against human HCT116 cells assessed as reduction in cell viability incubated for 48 hrs by MTT assay; format: functional
[1] = Selectivity index, ratio of IC50 for human L02 cells to IC50 for human HepG2 cells; format: toxicity; details: L02 cells versus HepG2 cells, read-out: Ratio IC50
MDA-MB-231 [2] = experiment: Induction of apoptosis in human MDA-MB-231 cells assessed as necrotic cells at 1 uM incubated for 24 hrs by annexinV-FITC and propidium iodide staining based flow cytometric analysis (reference value: 0.8%); format: functional
[3] = biological target: Signal transducer and activator of transcription 3 (Homo sapiens) (UniProt P40763); experiment: Inhibition of STAT3 in human MDA-MB-231 cells assessed as decrease in STAT3 phosphorylation at Ser727 residue incubated for 24 hrs by Western blot analysis; format: cell-based
MDA-MB-231 [4] = experiment: Effect on total STAT3 expression in human MDA-MB-231 cells at 1 to 4 uM incubated for 24 hrs by Western blot analysis; format: ADME, cell-based; details: mda-mb-231, 24 h
MDA-MB-231 [5] = experiment: Induction of apoptosis in human MDA-MB-231 cells assessed as late apoptotic cells at 2 uM incubated for 24 hrs by annexinV-FITC and propidium iodide staining based flow cytometric analysis (reference value: 1.0%); format: functional
MDA-MB-231 [6] = experiment: Induction of apoptosis in human MDA-MB-231 cells assessed as early apoptotic cells at 1 uM incubated for 24 hrs by annexinV-FITC and propidium iodide staining based flow cytometric analysis (reference value: 3.2%); format: functional
MDA-MB-231 [7] = experiment: Induction of apoptosis in human MDA-MB-231 cells assessed as late apoptotic cells at 4 uM incubated for 24 hrs by annexinV-FITC and propidium iodide staining based flow cytometric analysis (reference value: 1.0%); format: functional
MDA-MB-231 [8] = experiment: Induction of apoptosis in human MDA-MB-231 cells assessed as increase in cleaved caspase-9 levels at 1 to 4 uM incubated for 24 hrs by Western blot analysis; format: functional, cell-based
4T1 [9] = experiment: Antitumor activity against mouse 4T1 cells implanted in BALB/c mouse assessed as reduction in tumor weight at 10 mg/kg, ip for 14 days; format: functional; details: 4T1, ip, 336 h
MDA-MB-231 [10] = experiment: Antiproliferative activity against human MDA-MB-231 cells assessed as reduction in cell viability incubated for 48 hrs by MTT assay; format: functional, cell-based; details: MDA-MB-231, 48 h
4T1 [11] = experiment: Antitumor activity against mouse 4T1 cells implanted in BALB/c mouse assessed as reduction in tumor volume at 20 mg/kg, ip for 14 days; format: functional; details: 4T1, ip, 336 h
MCF-10A = experiment: Cytotoxicity against human MCF10A cells assessed as reduction in cell viability incubated for 48 hrs by MTT assay; format: cell-based
MCF7 [12] = experiment: Potency index, ratio of IC50 of BTP to ratio of IC50 of compound for antiproliferative activity against human MCF7 cells assessed as reduction in cell viability incubated for 48 hrs by MTT assay; format: functional
MDA-MB-231 [13] = experiment: Induction of apoptosis in human MDA-MB-231 cells assessed as late apoptotic cells at 1 uM incubated for 24 hrs by annexinV-FITC and propidium iodide staining based flow cytometric analysis (reference value: 1.0%); format: functional
MCF7 [14] = experiment: Antiproliferative activity against human MCF7 cells assessed as reduction in cell viability incubated for 48 hrs by MTT assay; format: functional, cell-based; details: MCF7, 48 h
MDA-MB-231 [15] = experiment: Inhibition of colony formation in human MDA-MB-231 cells at 2 uM treated for 24 hrs and measured after 10 to 14 days by crystal violet staining based assay; format: functional
[16] = biological target: Signal transducer and activator of transcription 3 (Homo sapiens) (UniProt P40763); experiment: Inhibition of STAT3 in human MDA-MB-231 cells assessed as decrease in STAT3-DNA binding at 1 to 4 uM incubated for 24 hrs by electrophoretic mobility shift assay; format: cell-based
HepG2 = experiment: Antiproliferative activity against human HepG2 cells assessed as reduction in cell viability incubated for 48 hrs by MTT assay; format: functional, cell-based; details: HepG2, 48 h
[17] = biological target: Signal transducer and activator of transcription 3 (Homo sapiens) (UniProt P40763); experiment: Inhibition of STAT3 in human MDA-MB-231 cells assessed as decrease in STAT3 phosphorylation at Tyr705 residue incubated for 24 hrs by Western blot analysis; format: cell-based
MDA-MB-231 [18] = experiment: Induction of mitochondrial membrane depolarization in human MDA-MB-231 cells assessed as increase in green fluorescence incubated for 24 hrs JC-1 staining based flow cytometric analysis; format: functional, cell-based
[19] = biological target: Mitogen-activated protein kinase; ERK1/ERK2 (Homo sapiens) (UniProt P27361+P28482); experiment: Inhibition of ERK 1/2 in human MDA-MB-231 cells assessed as reduction in ERK 1/2 phosphorylation at 1 to 4 uM incubated for 24 hrs by Western blot analysis; format: cell-based
[20] = biological target: Tyrosine-protein kinase JAK2 (Homo sapiens) (UniProt O60674); experiment: Inhibition of JAK2 in human MDA-MB-231 cells assessed as reduction in JAK2 phosphorylation at 1 to 4 uM incubated for 24 hrs by Western blot analysis; format: cell-based
Sequence of Tyrosine-protein kinase JAK2 (Homo sapiens) (O60674 whole entry): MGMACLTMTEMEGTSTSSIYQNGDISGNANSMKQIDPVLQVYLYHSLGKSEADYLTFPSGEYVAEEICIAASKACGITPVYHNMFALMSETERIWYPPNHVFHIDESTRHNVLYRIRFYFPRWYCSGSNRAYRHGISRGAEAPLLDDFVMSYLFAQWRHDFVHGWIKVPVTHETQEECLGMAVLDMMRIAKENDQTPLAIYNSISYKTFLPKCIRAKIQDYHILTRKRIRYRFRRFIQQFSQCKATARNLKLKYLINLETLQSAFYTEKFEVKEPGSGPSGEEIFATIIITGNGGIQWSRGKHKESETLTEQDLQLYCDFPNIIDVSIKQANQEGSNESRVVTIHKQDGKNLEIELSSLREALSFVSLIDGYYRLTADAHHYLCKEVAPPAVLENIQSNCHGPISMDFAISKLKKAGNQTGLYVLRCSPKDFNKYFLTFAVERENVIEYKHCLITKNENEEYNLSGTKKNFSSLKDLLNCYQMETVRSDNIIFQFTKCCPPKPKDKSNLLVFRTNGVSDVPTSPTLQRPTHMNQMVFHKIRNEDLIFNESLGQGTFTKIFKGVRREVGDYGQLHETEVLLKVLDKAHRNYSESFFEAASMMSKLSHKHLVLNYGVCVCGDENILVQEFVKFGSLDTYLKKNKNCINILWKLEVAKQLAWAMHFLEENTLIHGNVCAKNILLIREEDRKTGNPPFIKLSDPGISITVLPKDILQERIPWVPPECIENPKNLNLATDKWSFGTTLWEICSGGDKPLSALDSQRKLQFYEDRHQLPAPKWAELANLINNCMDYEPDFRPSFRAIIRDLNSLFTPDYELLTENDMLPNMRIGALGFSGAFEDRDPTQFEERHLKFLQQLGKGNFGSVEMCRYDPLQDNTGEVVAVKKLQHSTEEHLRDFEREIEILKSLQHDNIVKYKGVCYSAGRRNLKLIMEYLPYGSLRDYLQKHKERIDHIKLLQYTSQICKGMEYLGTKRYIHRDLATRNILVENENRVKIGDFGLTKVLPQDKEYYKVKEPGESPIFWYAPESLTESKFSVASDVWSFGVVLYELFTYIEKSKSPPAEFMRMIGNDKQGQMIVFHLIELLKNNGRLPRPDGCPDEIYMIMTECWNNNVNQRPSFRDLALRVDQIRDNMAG

Sequence of Signal transducer and activator of transcription 3 (Homo sapiens) (P40763 whole entry): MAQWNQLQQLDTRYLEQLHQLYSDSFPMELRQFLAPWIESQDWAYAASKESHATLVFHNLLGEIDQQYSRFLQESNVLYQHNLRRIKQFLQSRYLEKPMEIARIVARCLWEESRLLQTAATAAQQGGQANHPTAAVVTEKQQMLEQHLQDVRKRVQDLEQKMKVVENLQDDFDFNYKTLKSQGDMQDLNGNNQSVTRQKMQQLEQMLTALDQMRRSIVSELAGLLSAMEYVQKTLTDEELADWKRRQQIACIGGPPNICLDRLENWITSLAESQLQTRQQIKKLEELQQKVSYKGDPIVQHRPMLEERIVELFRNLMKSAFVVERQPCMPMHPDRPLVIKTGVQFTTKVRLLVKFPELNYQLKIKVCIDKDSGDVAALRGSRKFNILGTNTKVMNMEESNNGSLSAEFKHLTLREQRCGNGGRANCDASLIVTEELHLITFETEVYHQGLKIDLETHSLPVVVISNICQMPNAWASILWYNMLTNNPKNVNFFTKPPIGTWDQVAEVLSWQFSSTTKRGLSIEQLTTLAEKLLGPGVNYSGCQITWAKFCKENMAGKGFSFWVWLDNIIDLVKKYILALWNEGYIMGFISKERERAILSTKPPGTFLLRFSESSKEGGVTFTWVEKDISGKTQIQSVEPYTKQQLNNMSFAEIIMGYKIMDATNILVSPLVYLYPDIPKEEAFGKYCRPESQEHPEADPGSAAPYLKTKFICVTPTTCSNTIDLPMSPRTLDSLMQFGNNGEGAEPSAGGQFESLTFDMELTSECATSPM
Sequence of Mitogen-activated protein kinase; ERK1/ERK2 (Homo sapiens) (P27361 whole entry, looked up): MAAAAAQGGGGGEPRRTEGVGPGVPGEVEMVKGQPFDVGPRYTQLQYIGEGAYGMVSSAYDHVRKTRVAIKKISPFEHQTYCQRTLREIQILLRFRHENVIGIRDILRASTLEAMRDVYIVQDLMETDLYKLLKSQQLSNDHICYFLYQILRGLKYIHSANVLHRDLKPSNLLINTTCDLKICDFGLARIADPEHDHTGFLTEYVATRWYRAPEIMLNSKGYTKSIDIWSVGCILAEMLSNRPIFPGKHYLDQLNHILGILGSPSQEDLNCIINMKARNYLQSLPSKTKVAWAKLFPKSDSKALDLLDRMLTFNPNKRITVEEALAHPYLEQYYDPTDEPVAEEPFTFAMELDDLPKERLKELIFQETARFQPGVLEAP
Sequence of Mitogen-activated protein kinase; ERK1/ERK2 (Homo sapiens) (P28482 whole entry, looked up): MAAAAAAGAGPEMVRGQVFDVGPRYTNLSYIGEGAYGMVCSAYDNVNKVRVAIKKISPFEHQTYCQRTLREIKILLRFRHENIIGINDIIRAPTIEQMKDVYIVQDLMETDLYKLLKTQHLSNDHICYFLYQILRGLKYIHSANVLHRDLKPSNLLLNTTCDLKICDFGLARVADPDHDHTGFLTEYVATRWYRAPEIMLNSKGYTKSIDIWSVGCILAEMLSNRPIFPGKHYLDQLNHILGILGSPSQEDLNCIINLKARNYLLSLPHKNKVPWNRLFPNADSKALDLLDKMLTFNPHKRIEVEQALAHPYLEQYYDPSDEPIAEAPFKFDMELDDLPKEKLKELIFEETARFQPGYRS

Structure (SMILES): CCN(CC)c1ccc2cc(C(=O)N3CCN(C(=O)C4=Cc5c(Br)cccc5S4(=O)=O)CC3)c(=O)oc2c1
- Ratio IC50 (HCT-116): 4.6 - 19
- selectivity ratio [1]: 12.4
- Activity (MDA-MB-231 [2]): 1.3%
- inhibition [3]: Dose-dependent effect
- Activity (MDA-MB-231 [4]): Non-Toxic
- Activity (MDA-MB-231 [5]): 1.8%
- Activity (MDA-MB-231 [6]): 5.4%
- Activity (MDA-MB-231 [7]): 4.8%
- Activity (MDA-MB-231 [8]): Active
- inhibition in vivo at 10 mg/kg (4T1 [9]): 39.7%
- IC50 (MDA-MB-231 [10]): 1.43 µM
- inhibition in vivo at 20 mg/kg (4T1 [11]): 61.2%
- IC50 (MCF-10A): 14.6 µM
- Ratio IC50 (MCF7 [12]): 4.6 - 19
- Activity (MDA-MB-231 [13]): 1.2%
- IC50 (MCF7 [14]): 3.33 µM
- inhibition at 2 µM (MDA-MB-231 [15]): 100%
- inhibition [16]: Active
- IC50 (HepG2): 2.88 µM
- inhibition [17]: Dose-dependent effect
- Activity (MDA-MB-231 [18]): Dose-dependent effect
- inhibition [19]: inactive
- inhibition [20]: inactive
